Like-named read-outs stand apart in the source and are kept apart here.
Legend:
[1] = system: SARS-CoV; settings: background, cited sources; cited from earlier work
[2] = system: SARS CoV; type: cell-based; settings: for mean number of plaques: 3 days incubation at 37° C., vero C1008 cells; for plaques as % of virus control: virus control = 100%
[3] = system: RSV S2; type: cell-based; settings: 100 μg/ml

Cc1cccc(C)c1OCC(=O)N[C@@H](Cc1ccccc1)[C@@H](O)C[C@H](Cc1ccccc1)NC(=O)[C@H](C(C)C)N1CCCNC1=O [Lopinavir]
activity against SARS virus (reported in literature/news) [1]: partially active

Cc1c(O)cccc1C(=O)N[C@@H](CSc1ccccc1)[C@H](O)CN1C[C@H]2CCCC[C@H]2C[C@H]1C(=O)NC(C)(C)C [Nelfinavir]
activity against SARS virus (reported in literature/news) [1]: partially active

CCOC(=O)/C=C/[C@H](C[C@@H]1CCNC1=O)NC(=O)[C@@H](CC(=O)[C@@H](NC(=O)c1cc(C)on1)C(C)C)Cc1ccc(F)cc1 [AG7088]
activity against SARS virus (reported in literature/news) [1]: failed to inhibit virus

NC(=O)c1ncn([C@@H]2O[C@H](CO)[C@@H](O)[C@H]2O)n1 [Ribavirin]
mean number of plaques ([2]; Ribavirin 10 μg/ml): mean 114.75
plaques as % of virus control ([2]; Ribavirin 10 μg/ml): (97.5%)
mean number of plaques ([2]; Ribavirin 100 μg/ml): mean 87.25
plaques as % of virus control ([2]; Ribavirin 100 μg/ml): (74.1%)
plaque size compared with controls ([2]; higher concentrations (Ribavirin 100 μg/ml, PYN5C 200 μg/ml)): smaller than for the controls
protection of the cells against RSV [3]: did not protect
activity against SARS virus (reported in literature/news) [1]: appear to be efficacious

CC1(C)[C@@H](O[C@H]2O[C@H](C(=O)O)[C@@H](O)[C@H](O)[C@H]2O[C@@H]2O[C@H](C(=O)O)[C@@H](O)[C@H](O)[C@H]2O)CC[C@]2(C)[C@H]3C(=O)C=C4[C@@H]5C[C@@](C)(C(=O)O)CC[C@]5(C)CC[C@@]4(C)[C@]3(C)CC[C@@H]12 [glycyrrhizin]
activity against SARS virus (reported in literature/news) [1]: appear to be efficacious

— patent US20080038382A1 (priority 2004, published 2008)
